{"source": "patent US6750375B2", "about": "“Transgenic mouse comprising a disruption in an RGS9 gene” (California Institute of Technology, priority 2000, dated 2004)", "type_in_all_cases": "in vivo, mouse", "key": {"[1]": {"tested_on": "RGS9 knockout mice and their wild type littermates", "assay": "Locomotor activity (photobeam cage rack) in unlesioned animals", "method": "(§1) RGS9 knockout mice and their wild type littermates were placed in the photobeam cage rack activity system. The photobeam cage rack activity system was made by San Diego Instruments. Single events represent disruption of two distinct light beams 10 cm apart. Before drug administration, animals were allowed to habituate for 30 min. which was scored as baseline activity. […] All drugs were injected intraperitoneally. Drug effects were assessed for 30 min. Bodyweight was measured prior to all drug applications.\nLocomotion in Unlesioned Animals"}, "[2]": {"tested_on": "RGS9 knockout mice and their wild type littermates", "assay": "Dyskinesia rating (abnormal involuntary movements) in reserpine treated animals", "conditions": "apomorphine 5 mg/kg after chronic reserpine", "text": "To score for abnormal involuntary movements we adapted a rating scale that was previously used to score drug induced dyskinesia in monkeys (Goulet and Madra, JPET 2000). Both, trunk and limb, dyskinesia and stereotypic behavior were rated-absent (=O), mild (=1), moderate (=or 2) or severe (=3).\nUsing a modified monkey dyskinesia scale, there was a dramatic difference between homozygous knock out animals and wild type or heterozygous mice (FIG. 3)."}, "[3]": {"tested_on": "RGS9 knockout mice and their wild type littermates", "assay": "Locomotion in dopamine depleted (reserpine treated) animals", "method": "as §1\nThere are several options to induce behavioral changes secondary to a dopaminergic deficit in rodents. However, a strong phenotype in mice is difficult o achieve. […] Therefore, we depleted the animals of dopamine using chronic treatment with reserpine (1 mg /kg per day×5 days). […] Baseline locomotor activity was already greater in homozygous knock-out animals (FIG. 2, n. s.)."}}}
{"smiles": "Oc1cc2c(cc1O)C(c1ccccc1)CNCC2", "note": "(stereo not shown) [SKF 38393]", "values": [{"measurement": "increase in locomotion", "setting": "[1]; SKF 38393 10 mg/kg, all animals, no differences between genotypes (p=0.7)", "value": 2, "unit": "fold"}]}
{"smiles": "C[C@H](N)Cc1ccccc1", "note": "[amphetamine, d-amphetamine]", "values": [{"measurement": "increase in locomotion, homozygous knock-out vs wild type", "setting": "[1]; amphetamine 5 mg/kg intraperitoneal, homozygous knock-out animals, p<0.05, t-test", "value": "significantly greater increase in locomotion"}, {"measurement": "locomotion", "setting": "[1]; amphetamine 5 mg/kg intraperitoneal, wild type and RGS9 deficient animals", "value": "robust increase in locomotion"}]}
{"smiles": "CN1CCc2cccc3c2[C@H]1Cc1ccc(O)c(O)c1-3", "note": "[apomorphine]", "values": [{"measurement": "abnormal motor behavior (dystonia, hyperkinetic movements of the hindlimbs)", "setting": "[2]", "value": "induced abnormal motor behavior only in homozygous knockout animals"}, {"measurement": "locomotor activity", "setting": "[3]; apomorphine 5 mg/kg after chronic reserpine, all animals", "value": "induced locomotor activity in all animals"}, {"measurement": "locomotor activity, homozygous knock-out vs other animals", "setting": "[3]; apomorphine 5 mg/kg after chronic reserpine, homozygous knock out animals, p<0.05", "value": "more pronounced in homozygous knock out animals"}]}
{"smiles": "COC(=O)[C@H]1[C@H]2C[C@@H]3c4[nH]c5cc(OC)ccc5c4CCN3C[C@H]2C[C@@H](OC(=O)c2cc(OC)c(OC)c(OC)c2)[C@@H]1OC", "note": "[reserpine]", "values": [{"measurement": "spontaneous locomotion", "setting": "[3]; reserpine 1 mg/kg per day x 5 days", "value": "greatly reduced spontaneous locomotion"}]}
